Laboratory results reported in US20210330736A1 (UNIVERSITEIT VAN AMSTERDAM, priority 2018, published 2021).
Bridges are numbered along the chain shown (N, C = ends). [ ]: non-standard residue; d: D form. Abu = CC[C@H](N)C(=O)O

Assays:
Type in all cases: cell-based
[1] = test system: Ser40 phosphorylation of Th in MN9D cells; assay: Th Ser40 phosphorylation in MN9D cells (western blot, P-Ser40/total Th)
Protocol: FIG. 6. PDE2a is an important effector regulating Ser40 phosphorylation in MN9D cells. MN9D cultures were treated with IBMX or BAY-60-7550 (50 μM), a PDE2A-selective inhibitor. Cells were analyzed on western-blot for phosphorylation of Ser40 , total Th, and actin.
(§1) FIG. 7. PDE2a is an important effector regulating Ser40 phosphorylation in MN9D cells. BAY-60-7550 dose-curve and representative examples in MN9D (n=9, red) and HEK cells (n=4, blue) (Mean±SEM). Cells were treated with various concentrations of BAY 60-7750 and analyzed for Th phosphorylation on Ser40 , total Th and actin.
FIG. 10. PDE11 is an important effector regulating Ser40 phosphorylation in MN9D cells. BC 11-38 dose-curve and representative examples in MN9D (n=2) (Mean±SEM). IBMX served as a control and was used at 100 μM. Cell were analyzed for phosphorylation of Th on Ser40 and total Th was used as a loading control to determine phosphorylation specific effects.
24 hours prior to the administration of the different compounds, cells were serum-starved with DMEM medium supplemented with L-glutamine and Pen&Strep. Unless otherwise stated, the concentration of the different reagents is reported in Table 1 and the duration of the treatment was 1 hour.
Cells were harvested in 150 μL of Laemmli sample buffer (2% SDS, 10% glycerol, 60 mM Tris-Cl pH 6.8, 0.01% bromophenol blue, 50 mM freshly added DTT). Wells were duplicated in pairs and pooled into the same tubes to minimize variability. Samples were sonicated at maximum potency during 3 minutes, heated at 95° C. for 5 minutes and spun down briefly before loading. Running gels were 10% polyacrylamide except for the GUCY2C detection, which was optimal in 7% gels (375 mM Tris-Cl pH 8.8, 0.1% APS, 0.1% SDS, 0.04% TEMED). Stacking gels were 5% polyacrylamide (125 mM Tris-Cl pH 6.8, 0.1% APS, 0.1% SDS, 0.04% TEMED).
Up to 35 μL of sample was loaded in each slot and run in the presence of tris-glycine buffer and 0.1% SDS. Running conditions were 100 V during the first 20 minutes, followed by 160 V until the migration front reached the bottom of the gel. The transference was performed at 100 V onto 0.2 μm nitrocellulose membranes, in the presence of tris-glycine buffer and 20% methanol. The blotting duration was 140 minutes except for the detection of GUCY2C, which was transferred during 240 minutes in the presence of 0.1% SDS. Membranes were then submerged in Ponceau S solution to check blotting efficiency (0.1% Ponceau S, 5% acetic acid). After several washings with DEMI water, blots were incubated during 1 hour in the presence of 5% milk powder and TBS-T (154 mM NaCl, 49.5 mM Tris-Cl pH 7.4, 0.1% Tween-20). The incubation with the primary antibodies was performed O/N at 4° C. in TBS-T (consult Table 2 for dilution and species). Membranes were rinsed in TBS-T during 1 hour to remove the excess antibody. The incubation with the secondary antibodies took place during 60 minutes at room temperature (1:10,000 dilution in TBS-T, with the exception of the goat secondary which was diluted 1:20,000). Secondary antibodies were fused to the horseradish peroxidase and raised against the host species of the primary antibody. After additional washings during 1 hour, blots were exposed to an enhanced chemiluminescence solution and the signal was detected using an Odyssey imager (LI-COR). Band densitometry was performed with LI-COR Image Studio Lite. For graph quantifications, ‘Fold Change’ represents the ratio P-Ser40/Total Th. Statistical comparisons between pair of groups correspond to unpaired Student's t-tests, as calculated with GraphPad Prism. Asterisks denote the following p-values: *<0.05, **<0.01, ***<0.001, ****<0.0001.
IBMX is a non-selective PDE inhibitor, therefore we investigated the effect of inhibiting a specific PDE selectively on Ser40 phosphorylation. To study the effect of PDE2A inhibition on Ser40 phosphorylation we treated the dopaminergic cell-line MN9D with Bay BAY-60-7550 and analyzed the effects. […]

[2] = test system: Ser40 phosphorylation of Th in HEK cells transfected with Th; assay: Th Ser40 phosphorylation in HEK cells transfected with Th (western blot); settings: HEK transfected with Th, 500 μM, 48 hours post-plating
Protocol: FIG. 3. HEK cells are a suitable model to study GUCY2C-induced Ser40 phosphorylation. (A) RT-qPCR data from intact HEK extracts. Input material was 10 ng of total RNA. Cp corresponds to the cycle number in which the expression starts to be considered positive. (−) represents the water control, which is negative in every case. (B) HEK cultures were transfected with Th and treated with a cGMP analogue 48 hours post-plating. Changes in Ser40 phosphorylation were studied. The graph represents the statistical analysis (n=6; Mean±SEM). Unpaired Student's t-test (p-value: ****<0.0001). Hereon, ‘Fold Change’ corresponds to the ratio P-Ser40/Total Th.
as §1
HEK cells were maintained in 100-mm Petri dishes and grown in DMEM medium supplemented with L-glutamine, penicillin-streptomycin (Pen&Strep) and 10% heat-inactivated fetal bovine serum (HIFBS). Growing conditions were 37° C. and 5% CO2. For every-other-day passages, HEK cultures were split at a 1:3 dilution. From Friday to Monday, the split proportion was doubled for all cell lines. For passaging, cultures were rinsed with PBS and incubated with 1 mL of trypsin during 5 minutes. Cells were resuspended in growth medium and finally split to the proper dilution. The experiments were performed in 12-well plates. For immunocytochemistry analysis, sterile 18-mm coverslips were added prior to the plating. 500 !μL of cell resuspension was seeded in each well. If experiments were to be performed 48 hours after the plate preparation, 1:5 was the seeding ratio for HEK cells. When the experiments took place 96 hours post-plating, 1:7 was the working dilution for HEK cells. Unless otherwise stated, HEK cultures were processed 96 hours post-plating.
HEK cells were transfected using the calcium-phosphate method. […]

GUCY2C = GUCY2C (Homo sapiens, UniProt P25092); assay: GUCY2C ligand analysis in HEK-293 cells transfected with GUCY2C and Th (WES); set-up: expressed in transfected cells; host or cells: HEK-293 cells transfected with GUCY2C and Th; settings: 10 μM, Th Ser40 corrected for total Th, n=3
GUCY2C, sequence (P25092 24-1073): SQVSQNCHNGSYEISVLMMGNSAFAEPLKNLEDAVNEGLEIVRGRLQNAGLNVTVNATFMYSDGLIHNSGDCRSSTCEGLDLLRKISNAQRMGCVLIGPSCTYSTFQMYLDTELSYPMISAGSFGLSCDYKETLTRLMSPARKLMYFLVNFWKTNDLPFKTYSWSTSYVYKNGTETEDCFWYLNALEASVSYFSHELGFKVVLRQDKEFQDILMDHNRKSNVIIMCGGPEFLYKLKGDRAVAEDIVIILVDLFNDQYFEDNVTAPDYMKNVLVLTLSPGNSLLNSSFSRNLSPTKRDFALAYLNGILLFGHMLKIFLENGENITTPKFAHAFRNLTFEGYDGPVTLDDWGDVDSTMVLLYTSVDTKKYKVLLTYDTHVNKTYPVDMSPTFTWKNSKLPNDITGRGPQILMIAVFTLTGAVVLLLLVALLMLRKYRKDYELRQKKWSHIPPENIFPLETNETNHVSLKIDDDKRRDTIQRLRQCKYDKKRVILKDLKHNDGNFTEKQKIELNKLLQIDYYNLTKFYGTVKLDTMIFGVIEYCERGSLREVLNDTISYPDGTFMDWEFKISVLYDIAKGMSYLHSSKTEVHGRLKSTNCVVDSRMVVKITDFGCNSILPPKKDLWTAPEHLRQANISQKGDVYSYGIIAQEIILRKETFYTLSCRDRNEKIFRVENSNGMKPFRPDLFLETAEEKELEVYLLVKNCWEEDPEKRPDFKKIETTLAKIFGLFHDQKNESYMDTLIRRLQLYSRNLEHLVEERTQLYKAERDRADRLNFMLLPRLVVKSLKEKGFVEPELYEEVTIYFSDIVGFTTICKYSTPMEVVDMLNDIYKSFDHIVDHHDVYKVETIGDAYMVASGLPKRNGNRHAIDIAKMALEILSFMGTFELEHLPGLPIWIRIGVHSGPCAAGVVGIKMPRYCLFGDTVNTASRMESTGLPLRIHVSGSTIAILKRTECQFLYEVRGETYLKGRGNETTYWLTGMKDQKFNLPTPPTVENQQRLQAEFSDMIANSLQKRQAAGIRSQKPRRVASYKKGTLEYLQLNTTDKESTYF
Protocol: Potential GUCY2C ligands were tested in HEK-293 cells transfected with GUCY2C and Th and subsequently treated and analyzed by automated western (WES). Th Ser40 was corrected for total Th. Controls were set to 1. Significance is determined by two-tailed t-test on n=3. * p<0.05, **p<0.01, ***p<0.005, “”p<0.001. A) Guanylin control 10 μM. B) Peptides 1 to 5 in an amount of 10 μM. C) Peptides 6 to 11 in an amount of 10 μM.
We designed novel peptides with different activities with respect to endogenous GUCY2C ligands (Table 3). The peptides were analyzed in Th and GUCY2C transfected HEK-293 cells and subsequently tested ex-vivo in mice striatal slices. […] We synthezised uroguanylin and heat stable toxin as controls for the synthezised peptides and they thus are from a different source than the commercially available uroguanylin and heat stable toxin. […] Possibly the effects of the peptides can differ depending on the area in the striatum which is stimulated.

[3] = test system: Th Ser40 phosphorylation in mouse striatum slices; assay: Th Ser40 phosphorylation in mouse striatal slices ex vivo (WES automated western); settings: for Fold change (average), P-S40 TH/TTH / effects in striatal slices (significance, in words): 1 h; for Fold change (average), P-S40 TH/TTH: WES; for effects in striatal slices (significance, in words): peptides 10 μM, mouse striatal slices
Source text: FIG. 13. Bay 60-7550 and Guanylin synergize to induce Ser40 phosphorylation Analysis of striatal slices treated with indicated compounds. WES data showing the phosphorylation of Th on Serine 40 is shown as well as total Th levels (a). From left to right are sequential striatal slices from rostral to caudal. Every slice is split into left and right hemisphere and either treated with compounds or vehicle. Left a positive and negative control is shown (Neuro2a cells transfected with Th or empty vector). The amount of Th Ser40 is corrected for the amount of total Th and shown in the bar graph (b). Each individual slice is indicated by a different symbol. Signficance is determined using a 2-tailed paired t-test. 2-tailed paired t-test: p=0.006.
Adult mice with an average of 5 weeks were sacrificed and the brain was quickly removed and sliced into coronal sections of 250 μm using a vibratome. Sections containing striatum were micro-dissected to remove non-striatal structures. Hemispheres were separated and one hemisphere was treated with compounds whereas the counter-hemisphere was treated with vehicle. Treatment of slices occurred in carbonized artificial cerebrospinal fluid (aCSF). After treatments, slices were lyzed in SDS containing sample buffer, sonicated, and heated at 95° C. Samples were analyzed on a WES automated western system (Protein Simple) according to manufacturer's instructions.
To investigate the effect of PDE2 inhibition in the mouse brain, an ex-vivo approach using brain slices was utilized. Coronal slices of mouse striatum were prepared and treated with BAY-60 7550 diluted in aCSF and subsequently analyzed by a WES automated western system. […] PDE2 is thus expressed in dopaminergic neurons and PDE2 protein and Th protein are present in the synaptic terminals of the neurons which project from the midbrain dopamine system to the striatum. To investigate the effects of GUCY2C ligands on Th activation, coronal slices of the mouse striatum were prepared, treated with guanylin and analyzed for Th Ser40 phosphorylation as was done for BAY-60-7550. […] The machinery for producing dopamine is thus present in the synaptic terminals where dopamine is released. […] Since both BAY 60-7550 and guanylin increased Th phosphorylation at 10μM, but not at 1 μM, we examined the effect of combining BAY 60-7750 and guanylin at 1μM.

Molecule	Ser40 phosphorylation in HEK-293 cells (significance, in words) (GUCY2C)	Fold change (average), P-S40 TH/TTH ([3]; 10 μM, striatal slices)	further results
CCCSc1nc2c(c(=O)n1-c1ccccc1)SCC2 [BC 11-38]	–	–	performance versus IBMX on Ser40 phosphorylation ([1]; IBMX 100 μM as control): performed less well than the positive control IBMX; phosphorylation of Th on Ser40 as compared to total Th (in words) ([1]; dose-curve): increase in the phosphorylation of Th on Ser40
Nc1nc2c(nc(Br)n2[C@@H]2O[C@@H]3COP(=O)(O)O[C@H]3[C@H]2O)c(=O)[nH]1 [Peptide 8-Bromo-cGMP, 8-Bromo-cGMP]	–	–	P-Ser40 levels upon compound administration [2]: small but significant increase
H-NDCCELCCNVACTGCL-OH [Peptide 4]	significant effects	1.00	–
H-NDDCELCVNVACTGCL-OH (disulfide 4-12, 7-15; SMILES CC(C)C[C@H](NC(=O)[C@@H]1CSSC[C@@H]2NC(=O)[C@H](CC(C)C)NC(=O)[C@H](CCC(=O)O)NC(=O)[C@@H](NC(=O)[C@H](CC(=O)O)NC(=O)[C@H](CC(=O)O)NC(=O)[C@@H](N)CC(N)=O)CSSC[C@H](NC(=O)[C@H](C)NC(=O)[C@H](C(C)C)NC(=O)[C@H](CC(N)=O)NC(=O)[C@H](C(C)C)NC2=O)C(=O)N[C@@H]([C@@H](C)O)C(=O)NCC(=O)N1)C(=O)O) [Peptide 1]	did not show any significant effects	–	effects in striatal slices (significance, in words) [3]: did not show any significant effects
H-NDDCELCVNVACTGCLL-OH (disulfide 4-12, 7-15; ends not checked) [Peptide 2]	significant effects	2.23	rank of fold change in striatal slices ([3]; 10 μM, striatal slices): largest fold change; effects in striatal slices (significance, in words) [3]: not significant
H-NDDCELCVNVVCTGCL-OH (disulfide 4-12, 7-15; ends not checked) [Peptide 5]	–	1.22	–
H-NTFYCCELCCAPACTGCY-OH [Peptide 10]	significant effects	1.44	–
H-NTFYCCELCCNPACAGCY-OH (disulfide 5-10, 6-14, 9-17; ends not checked) [Peptide 9]	significant effects	1.37	–
H-NTFYCCELCCNPaCAGCY-OH [Peptide 11]	significant effects	1.20	–
H-QEECELCINMACTGCL-OH (disulfide 4-12, 7-15; ends not checked) [Peptide 8]	significant effects	0.89	–
H-QEECEL[Abu]INMACTGY-OH (cysteine pairing not given here) [Peptide 6]	significant effects	0.88	–
